Experiments:
[1] = test system: CCR5; test: CCR5 surface expression on CD4 and CD8 T lymphocytes in IL-2 cultured PBMCs (flow cytometry, mAb 182); type: cell-based, human; settings: days 7 and 10, five donors tested
Experimental: CCR5 surface expression was measured on PBMCs cultured in the presence of IL-2 for 7-10 days.

[2] = test system: HIV-1 ADA; test: microbe, parasite or virus in culture; settings: for reduction of p24 levels: day 7 after infection
Experimental: Infectivity Assays: The following viruses were used in infection experiments: HIV-1 IIIb, HIV-1 ADA, HIV-1 BaL, HIV-1 JRFL, HIV-1 JRCSF, and HIV-1 SF162. HIV-1 IIIb is a T cell line-adapted lab strain that uses CXCR4 for entry into cells, whereas the rest are isolates that use CCR5. Viruses were obtained from the National Institutes of Health AIDS Research and Reference Reagent Program.
For infection of PBMCs, fresh donor PBMCs were cultured for 7 days in medium containing IL-2. On day 7, cells were exposed to the virus for 3 h. Nonadsorbed virus was removed by washing cells with PBS three times. Infected cells were cultured in IL-2 medium. Infection of MDMs was carried out as described before (Perno, 1993). Unless otherwise indicated, PBMCs were infected by using an moi of 0.001, and MDM were infected by using an moi of 0.002. Virus growth was monitored in culture supernatants by measuring p24 antigen levels by ELISA (NEN) or by measuring viral RT activity in an RT assay (Willey, 1988).
Antiviral Activity of RAPA in PBMCs: The antiviral activity of RAPA was assayed in PBMCs that had been cultured in the presence of RAPA for 7 days before infection. Cells were infected with the X4 HIV-1 IIIb and the R5 HIV-1 ADA strains. Infected cells were cultured in the presence of RAPA (same concentration as during pretreatment) for 7 additional days, during which time virus replication and cell viability were measured.
To test this hypothesis, donor PBMCs were cultured in IL-2 medium in the absence or presence of RAPA (1, 10, and 100 nM). […] Infected cells were cultured in the presence of RAPA (same concentration as during pretreatment) plus 0.1 nM TAK-779. Virus production was determined 7 days after infection.
Donor PBMCs were cultured in IL-2 medium in the absence or presence of HU (0 and 10 uM). After 7 days, cells were infected with HIV-1 ADA. Infected cells were cultured in the presence of HU (same concentration as during pretreatment) plus different concentration of TAK-779 ranging from 0, 2 and 20 nM). Virus production was determined 7 days after infection.
In order to determine the nature and degree of interaction between RAPA and T20, infectivity assays were performed in the presence of the drugs, alone and in combination. The infectivity assays were performed using PBMCs from healthy donors. PBMCs were cultured for 7 days in the presence of IL-2 (100 U/ml) in the presence or absence of RAPA. On day 7, cells were infected by exposure to the R5 strain HIV-1 ADA (m.o.i of 0.001) for 2 h. Non-adsorbed virus was removed by 3 washes with PBS. Infected cells were then plated in RPMI-10 supplemented with IL-2 (100 U/ml) in the presence of different concentrations of RAPA and T20. Each drug concentration was tested in triplicate. Medium was changed in day 3 after infection and drugs were added at the same concentration as before. On day 7 after infection, virus production was measured in the culture supernatants using a commercial p24 antigen ELISA (NCI, Frederick). Cell viability was determined using the MTT assay (Roche).
The antiviral data was then analyzed for synergy using two different methodologies, the Median Effect principle and Three Dimensional modeling.

[3] = test system: CCR5 mRNA; test: Semiquantitative RT-PCR of CCR5 transcripts in PBMC cultures; type: cell-based, human; settings: PBMCs cultured with IL-2 and drug for 7 days
Experimental: PCR Methodologies: Amplification of CCR5 and β-chemokine RNA sequences was performed by RT-PCR as described (Baba, 1996; Levine, 1996).

[4] = test system: human lymphocytes; test: Cell cycle analysis of activated PBMCs (propidium iodide, flow cytometry); type: cell-based; settings: 4 μM, 24 hours, PBMCs from 2 normal donors
Experimental: Indirubin-3′-monoxime (IM) arrests human lymphocytes in G1 phase. PBMCs from 2 normal donors were activated in absence and presence of 4 μM Indirubin-3′-momoxime (IM) for 24 hours. Cells were then fixed with 70% Ethanol, stained with Propidium Iodide, and analyzed by Flow cytometry. Percentages of cells in each phase of the cell cycle are shown.

[5] = test system: HIV-1 ADA; test: Serial passage of HIV-1 ADA in PBMCs, emergence of T20 resistance (RT assay); type: cell-based
Experimental: HIV-1 ADA was passaged in PBMCs 21 times in the presence of RAPA, T-20 or RAPA+T20. After every passage, virus content in the culture supernatant was measured using the RT assay.
HIV-1 replication in the presence of T20 leads to the emergence of drug resistant strains in vitro and in vivo, and this resistance is associated with mutations in the aa 36-45 of gp 41. […] To this end, HIV-1 ADA was passaged weekly for 24 weeks in the presence of RAPA, T20 and RAPA/T20 combined.

For `NC(=O)NO` [HU, hydroxyurea], the “concentrations that down-regulated CCR5 surface expression on CD4 lymphocytes” value [1] was at least 50 µM, the “reduction of p24 levels” value ([2]; 10 uM of HU alone) was “approximately 60%” and the “CCR5 transcripts (semiquantitative RT-PCR)” value [3] was “decreased amounts of CCR5 transcripts”.

For Indirubin-3′-monoxime, the “percentage of cells in G1 phase versus untreated control” value [4] was “the % of cells in G1 increases”.

For enfuvirtide, the “antiviral activity on passaged virus” value ([5]; T20 100 nM, from the 11th passage onwards) was “did not exert antiviral activity”, the “sensitivity of passaged virus to T20” value ([5]; T20 alone, 10th passage) was “reduced sensitivity to T20” and the “inhibition of virus replication” value ([5]; T20 alone, initial 9 passages) was over 75%. The “Fa (fractional inhibition)” value ([2]; T-20 1.5 nM alone, p24 day 7) was 0.210, the “Fa (fractional inhibition)” value ([2]; T-20 3.12 nM alone, p24 day 7) was 0.260 and the “Fa (fractional inhibition)” value ([2]; T-20 6.25 nM alone, p24 day 7) was 0.400. The “Fa (fractional inhibition)” value ([2]; T-20 12.5 nM alone, p24 day 7) was 0.600, the “Fa (fractional inhibition)” value ([2]; T-20 25 nM alone, p24 day 7) was 0.810 and the “Fa (fractional inhibition)” value ([2]; T-20 50 nM alone, p24 day 7) was 0.980. The IC50 ([2]; read-out: Dm (dose at 50% inhibition, equivalent to IC50 value), drug used alone, p24 day 7) was 6.16 nM.

`Cc1ccc(-c2ccc3c(c2)C=C(C(=O)Nc2ccc(C[N+](C)(C)C4CCOCC4)cc2)CCC3)cc1.[Cl-]` [TAK-779, N,N-dimethyl-N-[4-[[[2-(4-methylphenyl)-6,7-dihydro-5H-benzocyclohepten-8-yl]carbonyl]amino]benzyl]tetrahydro-2H-pyran-4-aminium chloride] was tested, and the “reduction of p24 levels” value ([2]; 2 nM of TAK-779 alone) was “about 20%” and the inhibition at 0.0001 µM ([2]; Human immunodeficiency virus 1, PBMC, 168 h, read-out: inhibition of virus replication) was 21%.
